Literature values, collected in patent US9023374B2, “Sanitizing compositions” (priority 2009, dated 2015).
Like-named read-outs stand apart in the source and are kept apart here.

Key:
feline calicivirus [1] = tested on: feline calicivirus
feline calicivirus [2] = details: room temperature

Row | SMILES | inactivation of feline calicivirus (feline calicivirus [1]) | log10 reduction of feline calicivirus (feline calicivirus [2]; after 8 minutes) | log10 reduction of feline calicivirus (feline calicivirus [2]; after 30 minutes)
1 | CCO [ethanol] | failed to inactivate the virus |  | 
2 | CCO [70% w/w ethanol, ethanol] |  | < 2 log10 | 3 log10
